Data published in paper PMC12406253, “Exploration of the Neuromodulatory Properties of Fyn and GSK-3β Kinases Exploiting 7‑Azaindole-Based Inhibitors” (Journal of Medicinal Chemistry, 2025).

Key:
CK1γ1(h) = target: T1, CK1γ1(h) (Homo sapiens, UniProt Q9HCP0); assay: Eurofins KinaseProfiler radiometric kinase assay; format: biochemical; settings: read-out: CK1γ1(h) % Residual activity
T1 construct: purchased Eurofins KinaseProfiler (Eurofins Cerep)

EphA5(h) = target: T2, EphA5(h) (Homo sapiens, UniProt P54756); assay: Eurofins KinaseProfiler radiometric kinase assay; format: biochemical; settings: read-out: EphA5(h) % Residual activity
T2 construct: purchased Eurofins KinaseProfiler (Eurofins Cerep)

Plk3(h) = target: T3, Plk3(h) (Homo sapiens, UniProt Q9H4B4); assay: Eurofins KinaseProfiler radiometric kinase assay; format: biochemical; settings: read-out: Plk3(h) % Residual activity
T3 construct: purchased Eurofins KinaseProfiler (Eurofins Cerep)

IKKα(h) = target: T4, IKKα(h) (Homo sapiens, UniProt O15111); assay: Eurofins KinaseProfiler radiometric kinase assay; format: biochemical; settings: read-out: IKKα(h) % Residual activity
T4 construct: purchased Eurofins KinaseProfiler (Eurofins Cerep)

MLK1(h) = target: T5, MLK1(h) (Homo sapiens, UniProt P80192); assay: Eurofins KinaseProfiler radiometric kinase assay; format: biochemical; settings: for remaining activity at 10 µM: read-out: MLK1(h) % Residual activity
T5 construct: purchased Eurofins KinaseProfiler (Eurofins Cerep)
T5 sequence (P80192 whole entry): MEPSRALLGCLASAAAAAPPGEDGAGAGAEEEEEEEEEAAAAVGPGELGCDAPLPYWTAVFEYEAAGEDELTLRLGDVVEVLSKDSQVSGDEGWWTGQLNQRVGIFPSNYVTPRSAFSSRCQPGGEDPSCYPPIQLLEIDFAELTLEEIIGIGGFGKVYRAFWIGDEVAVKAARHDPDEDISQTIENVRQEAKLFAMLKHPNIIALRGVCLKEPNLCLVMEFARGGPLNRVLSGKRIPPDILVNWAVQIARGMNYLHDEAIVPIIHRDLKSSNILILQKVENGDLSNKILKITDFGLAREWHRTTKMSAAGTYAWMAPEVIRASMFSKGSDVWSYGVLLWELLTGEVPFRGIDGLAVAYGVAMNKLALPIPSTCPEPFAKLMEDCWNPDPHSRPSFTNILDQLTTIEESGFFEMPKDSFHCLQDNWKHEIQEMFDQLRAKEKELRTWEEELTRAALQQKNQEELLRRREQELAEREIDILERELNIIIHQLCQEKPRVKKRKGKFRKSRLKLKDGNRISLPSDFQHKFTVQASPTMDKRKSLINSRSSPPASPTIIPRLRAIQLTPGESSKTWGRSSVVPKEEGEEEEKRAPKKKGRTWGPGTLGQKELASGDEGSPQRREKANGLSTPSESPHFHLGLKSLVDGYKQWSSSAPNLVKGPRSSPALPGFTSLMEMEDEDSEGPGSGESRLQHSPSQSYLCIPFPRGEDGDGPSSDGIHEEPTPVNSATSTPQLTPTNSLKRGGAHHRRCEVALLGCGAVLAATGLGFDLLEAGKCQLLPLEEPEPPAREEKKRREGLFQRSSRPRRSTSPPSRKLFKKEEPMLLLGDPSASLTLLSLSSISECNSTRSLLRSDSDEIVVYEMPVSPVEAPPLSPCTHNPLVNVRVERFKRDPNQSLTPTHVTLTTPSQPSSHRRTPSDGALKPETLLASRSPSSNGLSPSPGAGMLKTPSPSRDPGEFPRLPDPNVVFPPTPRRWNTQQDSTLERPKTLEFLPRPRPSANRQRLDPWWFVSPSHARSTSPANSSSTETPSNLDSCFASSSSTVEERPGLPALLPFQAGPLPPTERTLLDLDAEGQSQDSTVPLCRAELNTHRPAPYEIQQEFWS

[1] = tested on: primary rat cerebellar granule neurons (CGNs); assay: Neurotoxicity, cell viability in CGNs (MTT); format: cell-based; settings: 5, 10, and 25 μM, 24 h
Experimental: A preliminary cell viability assessment was conducted in primary rat cerebellar granule neurons (CGNs), which are considered a reliable model for studying cellular and molecular mechanisms of survival/apoptosis and neurodegeneration/neuroprotection.
Primary cerebellar granule cells were dissociated from cerebella and plated on 96-well plates, previously coated with 10 μg/mL poly-L-lysine, at a density of 1.2 × 10^5 cells/0.2 mL medium/well in BME supplemented with 10% heat-inactivated FBS (Life Technologies), 2 mmol/L glutamine, 100 μmol/L gentamicin sulfate, and 25 mM KCl (all from Sigma-Aldrich). Sixteen hours later, 10 μM cytosine arabinofuranoside (Sigma-Aldrich) was added to avoid glial proliferation. After 7 days in vitro, differentiated neurons were shifted to serum-free BME medium and exposed to increasing concentrations (5 μM, 10 μM, 25 μM) of compounds of interest for 24 h. Then, cell viability was evaluated through the MTT assay.
For MTT assay, thiazolyl blue was added to the culture medium at a final concentration of 0.1 mg/mL. Following a 20 min incubation at 37 °C in the dark, the MTT precipitate was dissolved in 0.1 M Tris–HCl pH 7.5 buffer containing 5% Triton X-100 (all from Sigma-Aldrich) and absorbance was read at 570 nm in a microplate spectrophotometric reader (Bio-Rad).

MSK2(h) = target: T6, MSK2(h) (Homo sapiens, UniProt O75676); assay: Eurofins KinaseProfiler radiometric kinase assay; format: biochemical; settings: for remaining activity at 10 µM: read-out: MSK2(h) % Residual activity
T6 construct: purchased Eurofins KinaseProfiler (Eurofins Cerep)
T6 sequence (O75676 whole entry): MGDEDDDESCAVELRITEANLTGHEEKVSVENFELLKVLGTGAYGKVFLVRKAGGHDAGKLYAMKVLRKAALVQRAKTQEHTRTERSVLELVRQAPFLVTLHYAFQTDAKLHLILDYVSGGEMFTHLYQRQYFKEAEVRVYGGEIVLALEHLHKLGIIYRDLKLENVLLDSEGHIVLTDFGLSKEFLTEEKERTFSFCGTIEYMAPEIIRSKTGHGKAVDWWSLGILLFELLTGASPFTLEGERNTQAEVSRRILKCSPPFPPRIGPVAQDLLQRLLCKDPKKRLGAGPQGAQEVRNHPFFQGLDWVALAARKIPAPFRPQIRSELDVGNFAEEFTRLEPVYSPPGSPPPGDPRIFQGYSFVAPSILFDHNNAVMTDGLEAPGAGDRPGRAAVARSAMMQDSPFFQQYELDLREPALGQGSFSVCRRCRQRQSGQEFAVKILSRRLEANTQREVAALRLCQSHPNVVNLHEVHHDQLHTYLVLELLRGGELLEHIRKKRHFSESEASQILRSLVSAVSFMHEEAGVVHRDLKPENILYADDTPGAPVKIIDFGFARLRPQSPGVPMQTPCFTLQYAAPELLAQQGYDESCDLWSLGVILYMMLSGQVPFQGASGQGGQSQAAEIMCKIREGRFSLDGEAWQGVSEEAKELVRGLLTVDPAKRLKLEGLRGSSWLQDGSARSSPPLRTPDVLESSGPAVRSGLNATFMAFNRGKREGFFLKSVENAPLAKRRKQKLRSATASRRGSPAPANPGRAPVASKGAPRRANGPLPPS

CK2α2(h) = target: T7, CK2α2(h) (Homo sapiens, UniProt P19784); assay: Eurofins KinaseProfiler radiometric kinase assay; format: biochemical; settings: read-out: CK2α2(h) % Residual activity
T7 construct: purchased Eurofins KinaseProfiler (Eurofins Cerep)

[2] = target: T8, PI3 Kinase (p110δ/p85α)(h) (Homo sapiens, UniProt O00329); assay: Eurofins KinaseProfiler radiometric kinase assay; format: biochemical; settings: read-out: PI3 Kinase (p110δ/p85α)(h) % Residual activity
T8 construct: purchased Eurofins (Eurofins Cerep) KinaseProfiler

PKBα(h) = target: T9, PKBα(h) (Homo sapiens, UniProt P31749); assay: Eurofins KinaseProfiler radiometric kinase assay; format: biochemical; settings: read-out: PKBα(h) % Residual activity
T9 construct: purchased Eurofins KinaseProfiler (Eurofins Cerep)

[3] = target: T10, PI3 Kinase (p110α/p85α)(h) (Homo sapiens, UniProt P42336); assay: Eurofins KinaseProfiler radiometric kinase assay; format: biochemical; settings: read-out: PI3 Kinase (p110α/p85α)(h) % Residual activity
T10 construct: purchased Eurofins (Eurofins Cerep) KinaseProfiler

PAK2(h) = target: T11, PAK2(h) (Homo sapiens, UniProt Q13177); assay: Eurofins KinaseProfiler radiometric kinase assay; format: biochemical; settings: read-out: PAK2(h) % Residual activity
T11 construct: purchased Eurofins KinaseProfiler (Eurofins Cerep)

mTOR(h) = target: T12, mTOR(h) (Homo sapiens, UniProt P42345); assay: Eurofins KinaseProfiler radiometric kinase assay; format: biochemical; settings: read-out: mTOR(h) % Residual activity
T12 construct: purchased Eurofins KinaseProfiler (Eurofins Cerep)

p70S6K(h) = target: T13, p70S6K(h) (Homo sapiens, UniProt P23443); assay: Eurofins KinaseProfiler radiometric kinase assay; format: biochemical; settings: read-out: p70S6K(h) % Residual activity
T13 construct: purchased Eurofins KinaseProfiler (Eurofins Cerep)

LOK(h) = target: T14, LOK(h) (Homo sapiens, UniProt O94804); assay: Eurofins KinaseProfiler radiometric kinase assay; format: biochemical; settings: for LOK inhibition: 10 µM; for remaining activity at 10 µM: read-out: LOK(h) % Residual activity
T14 construct: purchased Eurofins KinaseProfiler (Eurofins Cerep)
T14 sequence (O94804 whole entry): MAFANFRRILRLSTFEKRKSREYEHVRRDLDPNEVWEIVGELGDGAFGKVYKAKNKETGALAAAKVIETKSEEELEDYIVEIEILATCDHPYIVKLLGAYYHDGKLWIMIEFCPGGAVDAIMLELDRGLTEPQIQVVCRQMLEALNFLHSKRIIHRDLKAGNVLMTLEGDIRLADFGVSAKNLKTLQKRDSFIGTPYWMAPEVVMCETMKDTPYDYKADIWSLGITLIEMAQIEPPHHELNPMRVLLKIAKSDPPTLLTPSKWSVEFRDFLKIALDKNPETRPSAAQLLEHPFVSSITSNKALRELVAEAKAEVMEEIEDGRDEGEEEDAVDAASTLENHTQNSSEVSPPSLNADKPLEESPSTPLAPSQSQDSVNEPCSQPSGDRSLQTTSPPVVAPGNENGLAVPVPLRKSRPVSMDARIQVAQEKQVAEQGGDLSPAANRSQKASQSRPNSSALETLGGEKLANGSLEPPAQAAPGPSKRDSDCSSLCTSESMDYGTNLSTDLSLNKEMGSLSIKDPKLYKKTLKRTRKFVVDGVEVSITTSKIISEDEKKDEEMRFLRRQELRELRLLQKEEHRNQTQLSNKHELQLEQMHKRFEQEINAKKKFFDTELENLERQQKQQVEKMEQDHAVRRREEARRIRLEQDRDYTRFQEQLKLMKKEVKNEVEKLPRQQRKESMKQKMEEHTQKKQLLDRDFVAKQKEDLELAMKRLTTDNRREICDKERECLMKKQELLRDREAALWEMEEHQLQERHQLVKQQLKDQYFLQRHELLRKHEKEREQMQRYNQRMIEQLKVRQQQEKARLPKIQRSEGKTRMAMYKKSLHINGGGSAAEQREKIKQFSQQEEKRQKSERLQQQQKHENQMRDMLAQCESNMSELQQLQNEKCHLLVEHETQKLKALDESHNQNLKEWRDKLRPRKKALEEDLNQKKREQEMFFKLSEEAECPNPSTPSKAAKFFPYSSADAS

IGF-1R(h) = target: T15, IGF-1R(h) (Homo sapiens, UniProt P08069); assay: Eurofins KinaseProfiler radiometric kinase assay; format: biochemical; settings: read-out: IGF-1R(h) % Residual activity
T15 construct: purchased Eurofins KinaseProfiler (Eurofins Cerep)

CDK1/cyclinB(h) = target: T16, CDK1/cyclinB(h) (Homo sapiens, UniProt P06493); assay: Eurofins KinaseProfiler radiometric kinase assay; format: biochemical; settings: read-out: CDK1/cyclinB(h) % Residual activity
T16 construct: purchased Eurofins KinaseProfiler (Eurofins Cerep)

GSK3β(h) = GSK3β(h) (Homo sapiens, UniProt P49841); assay: Eurofins KinaseProfiler radiometric kinase assay; settings: read-out: GSK3β(h) % Residual activity
ROCK-I(h) = target: T17, ROCK-I(h) (Homo sapiens, UniProt Q13464); assay: Eurofins KinaseProfiler radiometric kinase assay; format: biochemical; settings: read-out: ROCK-I(h) % Residual activity
T17 construct: purchased Eurofins KinaseProfiler (Eurofins Cerep)

PKA(h) = target: T18, PKA(h) (Homo sapiens, UniProt P17612); assay: Eurofins KinaseProfiler radiometric kinase assay; format: biochemical; settings: for remaining activity at 10 µM: read-out: PKA(h) % Residual activity
T18 construct: purchased Eurofins KinaseProfiler (Eurofins Cerep)

SAPK2a(h) = target: T19, SAPK2a(h) (Homo sapiens, UniProt Q16539); assay: Eurofins KinaseProfiler radiometric kinase assay; format: biochemical; settings: read-out: SAPK2a(h) % Residual activity
T19 construct: purchased Eurofins (Eurofins Cerep) KinaseProfiler

eEF-2K(h) = target: T20, eEF-2K(h) (Homo sapiens, UniProt O00418); assay: Eurofins KinaseProfiler radiometric kinase assay; format: biochemical; settings: read-out: eEF-2K(h) % Residual activity
T20 construct: purchased Eurofins KinaseProfiler (Eurofins Cerep)

Lyn(h) = target: T21, Lyn(h) (Homo sapiens, UniProt P07948); assay: Eurofins KinaseProfiler radiometric kinase assay; format: biochemical; settings: for Lyn inhibition: 10 µM; for remaining activity at 10 µM: read-out: Lyn(h) % Residual activity
T21 construct: purchased Eurofins KinaseProfiler (Eurofins Cerep)
T21 sequence (P07948 whole entry): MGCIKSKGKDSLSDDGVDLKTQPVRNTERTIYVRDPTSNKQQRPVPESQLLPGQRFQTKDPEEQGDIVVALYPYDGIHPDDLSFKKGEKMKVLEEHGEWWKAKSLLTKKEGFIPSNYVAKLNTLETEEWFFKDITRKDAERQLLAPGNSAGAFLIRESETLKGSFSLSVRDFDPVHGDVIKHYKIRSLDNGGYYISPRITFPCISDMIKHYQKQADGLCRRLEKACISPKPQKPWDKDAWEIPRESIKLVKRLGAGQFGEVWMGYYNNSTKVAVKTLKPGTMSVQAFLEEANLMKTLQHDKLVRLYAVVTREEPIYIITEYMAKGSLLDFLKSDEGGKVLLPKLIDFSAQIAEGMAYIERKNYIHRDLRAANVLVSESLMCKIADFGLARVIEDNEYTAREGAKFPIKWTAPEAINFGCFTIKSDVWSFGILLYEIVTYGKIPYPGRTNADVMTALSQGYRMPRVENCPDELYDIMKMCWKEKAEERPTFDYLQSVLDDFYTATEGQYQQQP

c-RAF(h) = target: T22, c-RAF(h) (Homo sapiens, UniProt P04049); assay: Eurofins KinaseProfiler radiometric kinase assay; format: biochemical; settings: read-out: c-RAF(h) % Residual activity
T22 construct: purchased Eurofins KinaseProfiler (Eurofins Cerep)
T22 sequence (P04049 whole entry): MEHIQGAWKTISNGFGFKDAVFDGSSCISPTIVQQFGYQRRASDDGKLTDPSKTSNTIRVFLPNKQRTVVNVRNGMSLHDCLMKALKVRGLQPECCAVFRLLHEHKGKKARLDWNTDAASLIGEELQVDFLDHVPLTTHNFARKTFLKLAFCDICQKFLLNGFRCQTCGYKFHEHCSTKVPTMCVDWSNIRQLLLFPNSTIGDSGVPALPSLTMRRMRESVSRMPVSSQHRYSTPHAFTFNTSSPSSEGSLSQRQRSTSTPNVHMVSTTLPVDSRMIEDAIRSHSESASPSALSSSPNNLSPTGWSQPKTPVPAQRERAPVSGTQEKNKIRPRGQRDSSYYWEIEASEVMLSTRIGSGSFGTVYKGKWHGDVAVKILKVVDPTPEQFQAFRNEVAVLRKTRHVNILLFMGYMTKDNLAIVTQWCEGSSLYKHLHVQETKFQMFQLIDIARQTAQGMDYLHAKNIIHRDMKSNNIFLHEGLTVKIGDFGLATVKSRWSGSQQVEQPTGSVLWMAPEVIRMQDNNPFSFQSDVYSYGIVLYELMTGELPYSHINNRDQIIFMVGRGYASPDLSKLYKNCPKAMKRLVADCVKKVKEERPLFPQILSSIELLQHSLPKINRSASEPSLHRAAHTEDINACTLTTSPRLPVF

ASK1(h) = target: T23, ASK1(h) (Homo sapiens, UniProt Q99683); assay: Eurofins KinaseProfiler radiometric kinase assay; format: biochemical; settings: read-out: ASK1(h) % Residual activity
T23 construct: purchased Eurofins KinaseProfiler (Eurofins Cerep)

PRAK(h) = target: T24, PRAK(h) (Homo sapiens, UniProt Q8IW41); assay: Eurofins KinaseProfiler radiometric kinase assay; format: biochemical; settings: read-out: PRAK(h) % Residual activity
T24 construct: purchased Eurofins KinaseProfiler (Eurofins Cerep)
T24 sequence (Q8IW41 whole entry): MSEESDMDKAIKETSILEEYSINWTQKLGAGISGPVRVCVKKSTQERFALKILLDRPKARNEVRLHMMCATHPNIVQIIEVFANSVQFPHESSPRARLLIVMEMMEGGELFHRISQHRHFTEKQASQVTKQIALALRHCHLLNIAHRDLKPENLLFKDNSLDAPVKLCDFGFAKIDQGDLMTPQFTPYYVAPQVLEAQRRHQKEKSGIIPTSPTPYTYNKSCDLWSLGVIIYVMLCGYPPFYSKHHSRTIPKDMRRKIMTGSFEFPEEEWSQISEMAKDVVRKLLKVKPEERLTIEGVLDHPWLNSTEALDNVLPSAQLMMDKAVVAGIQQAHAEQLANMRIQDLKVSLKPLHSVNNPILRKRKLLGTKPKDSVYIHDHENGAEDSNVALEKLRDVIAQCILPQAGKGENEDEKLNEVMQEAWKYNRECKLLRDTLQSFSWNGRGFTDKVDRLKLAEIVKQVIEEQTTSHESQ

CDK7/cyclinH/MAT1(h) = target: T25, CDK7/cyclinH/MAT1(h) (Homo sapiens, UniProt P50613); assay: Eurofins KinaseProfiler radiometric kinase assay; format: biochemical; settings: read-out: CDK7/cyclinH/MAT1(h) % Residual activity
T25 construct: purchased Eurofins KinaseProfiler (Eurofins Cerep)

[4] = target: T26, PI3 Kinase (p110β/p85α)(h) (Homo sapiens, UniProt P42338); assay: Eurofins KinaseProfiler radiometric kinase assay; format: biochemical; settings: read-out: PI3 Kinase (p110β/p85α)(h) % Residual activity
T26 construct: purchased Eurofins (Eurofins Cerep) KinaseProfiler

CHK1(h) = target: T27, CHK1(h) (Homo sapiens, UniProt O14757); assay: Eurofins KinaseProfiler radiometric kinase assay; format: biochemical; settings: read-out: CHK1(h) % Residual activity
T27 construct: purchased Eurofins KinaseProfiler (Eurofins Cerep)
T27 sequence (O14757 whole entry): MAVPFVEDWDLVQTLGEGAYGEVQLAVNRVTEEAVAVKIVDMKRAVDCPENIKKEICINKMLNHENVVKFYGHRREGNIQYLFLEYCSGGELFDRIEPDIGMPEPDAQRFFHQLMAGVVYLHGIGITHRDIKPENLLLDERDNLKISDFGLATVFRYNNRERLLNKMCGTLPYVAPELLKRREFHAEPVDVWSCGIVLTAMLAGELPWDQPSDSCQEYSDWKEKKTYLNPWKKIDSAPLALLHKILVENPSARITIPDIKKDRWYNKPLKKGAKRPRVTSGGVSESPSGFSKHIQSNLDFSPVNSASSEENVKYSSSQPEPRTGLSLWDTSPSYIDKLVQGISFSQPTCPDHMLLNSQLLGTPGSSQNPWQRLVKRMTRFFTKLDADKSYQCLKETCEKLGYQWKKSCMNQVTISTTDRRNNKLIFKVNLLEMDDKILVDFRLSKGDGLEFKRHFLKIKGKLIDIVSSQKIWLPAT

MAPKAP-K2(h) = target: T28, MAPKAP-K2(h) (Homo sapiens, UniProt P49137); assay: Eurofins KinaseProfiler radiometric kinase assay; format: biochemical; settings: read-out: MAPKAP-K2(h) % Residual activity
T28 construct: purchased Eurofins KinaseProfiler (Eurofins Cerep)

Aurora-A(h) = target: T29, Aurora-A(h) (Homo sapiens, UniProt O14965); assay: Eurofins KinaseProfiler radiometric kinase assay; format: biochemical; settings: read-out: Aurora-A(h) % Residual activity
T29 construct: purchased Eurofins KinaseProfiler (Eurofins Cerep)

FYNα = FYNα (Homo sapiens, UniProt P06241); assay: Fyn kinetics, ATP competition (Lineweaver–Burk); settings: 0.05 and 0.3 μM compound; ATP 1.5 to 24 μM

## Br.Cc1sc(NCc2ccccc2)nc1-c1c[nH]c2ncc(Br)cc12 [Compound 41, N-Benzyl-4-(5-bromo-1H-pyrrolo[2,3-b]pyridin-3-yl)-5-methylthiazol-2-amine Hydrobromide]
CK1γ1(h)
  remaining activity at 10 µM: 93%
EphA5(h)
  remaining activity at 10 µM: 93%
Plk3(h)
  remaining activity at 10 µM: 89%
IKKα(h)
  remaining activity at 10 µM: 96%
MLK1(h)
  inhibition at 10 µM: > 90%
  remaining activity at 10 µM: 8%
[1]
  Increase in registered cell viability in comparison to control: amplified
  Neurotoxicity on CGNs (cell viability compared to control): not neurotoxic
MSK2(h)
  remaining activity at 10 µM: 59%
CK2α2(h)
  remaining activity at 10 µM: 83%
[2]
  remaining activity at 10 µM: 66%
PKBα(h)
  remaining activity at 10 µM: 104%
[3]
  remaining activity at 10 µM: 97%
PAK2(h)
  remaining activity at 10 µM: 75%
mTOR(h)
  remaining activity at 10 µM: 86%
p70S6K(h)
  remaining activity at 10 µM: 50%
LOK(h)
  LOK inhibition: completely inhibited
  remaining activity at 10 µM: 4%
IGF-1R(h)
  remaining activity at 10 µM: 83%
CDK1/cyclinB(h)
  remaining activity at 10 µM: 27%
GSK3β(h)
  remaining activity at 10 µM: 58%
ROCK-I(h)
  remaining activity at 10 µM: 93%
PKA(h)
  remaining activity at 10 µM: 111%
SAPK2a(h)
  remaining activity at 10 µM: 101%
eEF-2K(h)
  remaining activity at 10 µM: 121%
Lyn(h)
  Lyn inhibition: completely inhibited
  remaining activity at 10 µM: 1%
c-RAF(h)
  remaining activity at 10 µM: 52%
ASK1(h)
  remaining activity at 10 µM: 72%
PRAK(h)
  remaining activity at 10 µM: 64%
CDK7/cyclinH/MAT1(h)
  remaining activity at 10 µM: 55%
[4]
  remaining activity at 10 µM: 89%
CHK1(h)
  remaining activity at 10 µM: 111%
MAPKAP-K2(h)
  remaining activity at 10 µM: 33%
Aurora-A(h)
  remaining activity at 10 µM: 11%

## Br.Cc1sc(NCc2ccnc(Cl)c2)nc1-c1c[nH]c2ncccc12 [Compound 43, N-((2-Chloropyridin-4-yl)methyl)-5-methyl-4-(1H-pyrrolo[2,3-b]pyridin-3-yl)thiazol-2-amine Hydrobromide]
CK1γ1(h)
  remaining activity at 10 µM: 77%
EphA5(h)
  remaining activity at 10 µM: 103%
Plk3(h)
  remaining activity at 10 µM: 96%
IKKα(h)
  remaining activity at 10 µM: 99%
MLK1(h)
  remaining activity at 10 µM: 12%
[1]
  Increase in registered cell viability in comparison to control: amplified
  Neurotoxicity on CGNs (cell viability compared to control): not neurotoxic
MSK2(h)
  inhibition at 10 µM: > 90%
  remaining activity at 10 µM: 1%
CK2α2(h)
  remaining activity at 10 µM: 100%
[2]
  remaining activity at 10 µM: 97%
PKBα(h)
  remaining activity at 10 µM: 103%
[3]
  remaining activity at 10 µM: 96%
PAK2(h)
  remaining activity at 10 µM: 72%
mTOR(h)
  remaining activity at 10 µM: 97%
p70S6K(h)
  remaining activity at 10 µM: 14%
LOK(h)
  LOK inhibition: completely inhibited
  remaining activity at 10 µM: 4%
IGF-1R(h)
  remaining activity at 10 µM: 68%
CDK1/cyclinB(h)
  remaining activity at 10 µM: 20%
ROCK-I(h)
  remaining activity at 10 µM: 76%
PKA(h)
  inhibition at 10 µM: > 90%
  remaining activity at 10 µM: 8%
SAPK2a(h)
  remaining activity at 10 µM: 103%
eEF-2K(h)
  remaining activity at 10 µM: 108%
Lyn(h)
  Lyn inhibition: completely inhibited
  remaining activity at 10 µM: 1%
FYNα
  Mechanism of Fyn inhibition with respect to ATP: competitive inhibition with respect to ATP
c-RAF(h)
  remaining activity at 10 µM: 34%
ASK1(h)
  remaining activity at 10 µM: 97%
PRAK(h)
  remaining activity at 10 µM: 97%
CDK7/cyclinH/MAT1(h)
  remaining activity at 10 µM: 62%
[4]
  remaining activity at 10 µM: 94%
CHK1(h)
  remaining activity at 10 µM: 112%
MAPKAP-K2(h)
  remaining activity at 10 µM: 45%
Aurora-A(h)
  remaining activity at 10 µM: 27%
